Like-named read-outs stand apart in the source and are kept apart here.
Assays:
Aurora A (active) = target: T1, Aurora A (active) (Homo sapiens, UniProt O14965); assay: In vitro Aurora A kinase assay (γ33P-ATP incorporation into myelin basic protein); assay type: biochemical
T1 construct: Bacterially expressed full-length His-Aurora A was used to determine the IC50 value for CoA; made in house; host or cells: E. coli BL21 (DE3) pLysS
T1 sequence (O14965 1-403): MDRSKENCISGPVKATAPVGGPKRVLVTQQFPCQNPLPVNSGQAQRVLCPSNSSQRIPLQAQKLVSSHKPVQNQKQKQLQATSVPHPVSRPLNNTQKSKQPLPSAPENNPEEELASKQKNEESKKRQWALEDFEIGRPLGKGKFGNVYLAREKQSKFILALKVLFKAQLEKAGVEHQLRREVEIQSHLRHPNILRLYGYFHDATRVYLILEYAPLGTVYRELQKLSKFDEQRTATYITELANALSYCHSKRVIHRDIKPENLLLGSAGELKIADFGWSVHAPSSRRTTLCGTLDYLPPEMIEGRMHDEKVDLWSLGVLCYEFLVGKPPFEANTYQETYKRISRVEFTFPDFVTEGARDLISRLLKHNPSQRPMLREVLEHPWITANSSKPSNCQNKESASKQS
Procedure: (§1) Profiling of 117 protein kinases with CoA, dpCoA and ADP was carried out at the International Centre for Protein Kinase Profiling at the University of Dundee. Each compound was tested in vitro, in duplicate, at 100 μM final concentration using recombinant kinases, model substrates and optimal concentrations of ATP. Bacterially expressed full-length His-Aurora A was used to determine the IC50 value for CoA (in the presence or absence of DTT), dpCoA, ADP and desulfo-CoA. The assay was performed in the presence of 5 μM competing ATP. To examine whether the inhibitory effect of CoA on Aurora A is modulated by TPX2, IC50 values for CoA were also generated in the presence and absence of 1 μg TPX2 (residues 1–43) fragment.
Aurora A kinase activity was assayed by measuring incorporation of γ^33P-ATP into myelin basic protein (Sigma). Purified recombinant protein (100 ng) was incubated at room temperature for 30 min in a total volume of 15 μl containing 50 mM HEPES pH 7.5, 10 mM MgCl2, 1 mM EGTA, 0.05% Brij-35, 0.5 mg/ml myelin basic protein, and 5 μM γ^33P-ATP (100–10,000 dpm/pmol). The reaction was stopped by spotting the reaction mixture onto squares of P81 phosphocellulose ion exchange paper (Whatmann), which were then immersed in 1.5% (v/v) phosphoric acid. After washing twice in 1% phosphoric acid followed by two washes in distilled water, the papers were air dried and radioactivity was counted by a scintillation counter and recorded by Quantasmart version 2.03.

[1] = target: T2, Aurora A (inactive), unphosphorylated (PP1-treated) (Homo sapiens, UniProt O14965); assay: Lanthascreen Eu Kinase FRET binding assay
T2 construct: For enzyme and DSF assays, full-length human Aurora A and Aurora B and 1–43 TPX2 were produced; made in house; host or cells: E. coli
T2 sequence (O14965 1-403): T1 sequence (O14965 1-403)
Procedure: (§2) A Lanthascreen Eu Kinase FRET Binding Assay (Invitrogen) was employed to determine IC50 values for the interaction of Aurora A with CoA, dpCoA, ATP, and ADP. […] Recombinant Aurora A was incubated with Europium-conjugated anti-histidine tag antibody and an Alexa Fluor 647-labelled tracer, which binds to the ATP binding pocket of Aurora A. The close proximity of the anti-histidine (epitope-tag) antibody and the tracer results in a high degree of FRET (fluorescence resonance energy transfer) from the europium donor fluorophore to the Alexa Fluor 647 acceptor fluorophore. ATP-competitive inhibitors, such as CoA, displace the tracer from the active site, causing a loss of FRET signal. Assay set-up was performed as described by the manufacturer. Briefly, the time-resolved fluorescence resonance energy transfer assay (TR-FRET) was performed in black, low volume 384 well plates (Corning). Each well contained 5 nM kinase, 2 nM Eu-anti-His antibody and 10 nM kinase tracer 236 in kinase buffer A (50 mM Hepes pH 7.5, 10 mM MgCl2, 1 mM […], 0.01% (v/v) Brij-35), varying amounts of CoA, dpCoA, ATP, and ADP. The reaction mix was incubated for 1h at room temperature. The signal was measured at 665/620 nm emission ratio using BMG LABTECH plate reader (PHERAstar). All assays were performed using duplicates. The 11-point response curves were generated using GraphPad Prism software from the inhibition data generated.

[2] = target: T3, Aurora A (active), T288 phosphorylated (Homo sapiens, UniProt O14965); assay: Lanthascreen Eu Kinase FRET binding assay
T3 construct: For enzyme and DSF assays, full-length human Aurora A and Aurora B and 1–43 TPX2 were produced; made in house; host or cells: E. coli
T3 sequence (O14965 1-403): T1 sequence (O14965 1-403)
Procedure: as §2

CAMKK = assay: Kinase profiling screen (radioactive filter-binding assay); assay type: biochemical, human; conditions: 100 μM compound, 20 μM ATP
Procedure: as §1

ROCK 2 = assay: as above; assay type: biochemical, human; conditions: 100 μM compound, 20 μM ATP
Procedure: as §1

AMPK = assay: as above; assay type: biochemical, human; conditions: 100 μM compound, 50 μM ATP
Procedure: as §1

DYRK2 = target: T4, DYRK2 (Homo sapiens, UniProt Q92630); assay: as above; assay type: biochemical; conditions: 100 μM compound, 50 μM ATP; read-out: Kinase activity, % of activity in the absence of inhibitor
T4 sequence (Q92630 1-601): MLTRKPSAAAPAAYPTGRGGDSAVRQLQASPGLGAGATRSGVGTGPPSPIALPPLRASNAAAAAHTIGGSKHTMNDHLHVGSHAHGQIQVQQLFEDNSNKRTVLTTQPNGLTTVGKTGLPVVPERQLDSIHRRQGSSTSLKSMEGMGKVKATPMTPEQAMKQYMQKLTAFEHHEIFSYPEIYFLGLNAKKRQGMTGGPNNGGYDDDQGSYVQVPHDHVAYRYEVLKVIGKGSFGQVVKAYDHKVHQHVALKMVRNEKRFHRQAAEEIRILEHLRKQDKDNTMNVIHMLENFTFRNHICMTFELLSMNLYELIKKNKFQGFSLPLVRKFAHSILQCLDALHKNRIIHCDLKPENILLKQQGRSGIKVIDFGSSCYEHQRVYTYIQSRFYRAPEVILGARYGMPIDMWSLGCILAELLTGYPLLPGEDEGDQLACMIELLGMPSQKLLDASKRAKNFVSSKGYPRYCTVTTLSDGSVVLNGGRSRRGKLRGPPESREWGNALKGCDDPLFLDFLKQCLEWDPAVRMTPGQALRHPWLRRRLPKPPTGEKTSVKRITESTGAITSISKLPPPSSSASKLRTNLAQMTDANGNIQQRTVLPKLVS
Procedure: as §1

HIPK2 = HIPK2 (Homo sapiens, UniProt Q9H2X6); assay: as above; assay type: biochemical; conditions: 100 μM compound, 5 μM ATP; read-out: Kinase activity, % of activity in the absence of inhibitor
Procedure: as §1

CLK2 = CLK2 (Homo sapiens, UniProt P49760); assay: as above; assay type: biochemical; conditions: 100 μM compound, 5 μM ATP; read-out: Kinase activity, % of activity in the absence of inhibitor
Procedure: as §1

[3] = 5 μM competing ATP, read-out: Aurora A (active) IC50 (μM), activity assay
[4] = T288 phosphorylated Aurora A, read-out: Aurora A (active) IC50 (μM), binding assay

Chain of CLK2 (P49760 whole entry): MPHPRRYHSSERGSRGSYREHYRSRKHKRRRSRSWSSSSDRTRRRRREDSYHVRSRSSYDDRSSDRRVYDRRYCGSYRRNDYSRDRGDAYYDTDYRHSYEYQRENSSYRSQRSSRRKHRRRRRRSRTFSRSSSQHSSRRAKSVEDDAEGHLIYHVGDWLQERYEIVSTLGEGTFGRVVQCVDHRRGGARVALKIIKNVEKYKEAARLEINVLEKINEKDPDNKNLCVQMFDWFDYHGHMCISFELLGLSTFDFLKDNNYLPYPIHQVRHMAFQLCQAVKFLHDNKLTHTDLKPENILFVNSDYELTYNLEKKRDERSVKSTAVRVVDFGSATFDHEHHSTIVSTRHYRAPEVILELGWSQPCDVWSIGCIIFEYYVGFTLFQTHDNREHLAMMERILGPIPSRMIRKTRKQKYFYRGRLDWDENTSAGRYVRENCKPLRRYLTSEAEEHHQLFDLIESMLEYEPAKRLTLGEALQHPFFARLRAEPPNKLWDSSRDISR
Chain of HIPK2 (Q9H2X6 whole entry): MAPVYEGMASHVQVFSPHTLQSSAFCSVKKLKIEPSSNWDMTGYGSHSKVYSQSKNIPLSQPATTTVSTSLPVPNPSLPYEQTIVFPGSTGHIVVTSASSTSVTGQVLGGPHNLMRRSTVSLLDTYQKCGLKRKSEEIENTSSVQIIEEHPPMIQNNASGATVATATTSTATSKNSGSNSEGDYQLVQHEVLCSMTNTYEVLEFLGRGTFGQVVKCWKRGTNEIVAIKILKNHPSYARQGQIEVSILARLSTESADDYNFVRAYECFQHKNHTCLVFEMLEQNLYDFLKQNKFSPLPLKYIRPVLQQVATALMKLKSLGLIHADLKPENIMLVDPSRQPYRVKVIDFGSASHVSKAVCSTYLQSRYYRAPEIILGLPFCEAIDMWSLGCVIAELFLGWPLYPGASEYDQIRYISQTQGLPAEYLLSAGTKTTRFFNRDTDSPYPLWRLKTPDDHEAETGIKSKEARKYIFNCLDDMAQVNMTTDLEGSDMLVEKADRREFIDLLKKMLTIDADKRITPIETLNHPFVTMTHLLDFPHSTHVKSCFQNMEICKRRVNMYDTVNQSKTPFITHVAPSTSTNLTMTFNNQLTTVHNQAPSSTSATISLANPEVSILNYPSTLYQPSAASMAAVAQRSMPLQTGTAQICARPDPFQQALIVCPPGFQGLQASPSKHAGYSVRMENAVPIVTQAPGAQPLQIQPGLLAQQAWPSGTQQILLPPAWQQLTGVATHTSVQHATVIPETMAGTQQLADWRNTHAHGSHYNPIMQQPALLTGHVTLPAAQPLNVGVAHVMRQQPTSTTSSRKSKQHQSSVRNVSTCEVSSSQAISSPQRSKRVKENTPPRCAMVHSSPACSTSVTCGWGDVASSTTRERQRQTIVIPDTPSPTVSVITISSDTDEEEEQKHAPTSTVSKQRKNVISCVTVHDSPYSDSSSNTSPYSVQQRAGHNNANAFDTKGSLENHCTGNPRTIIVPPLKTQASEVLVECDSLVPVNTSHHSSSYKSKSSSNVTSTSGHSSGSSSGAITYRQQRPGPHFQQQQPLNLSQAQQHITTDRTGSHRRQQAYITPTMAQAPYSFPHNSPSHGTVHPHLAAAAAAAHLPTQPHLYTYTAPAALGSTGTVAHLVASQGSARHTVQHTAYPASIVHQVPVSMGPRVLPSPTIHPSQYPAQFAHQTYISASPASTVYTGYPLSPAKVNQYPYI

SMILES	IC50 (Aurora A (active); [3]) [µM]	IC50 [1] [µM]	IC50 [2, 4] [nM]	IC50 ([2]; read-out: IC50 for the interaction of active Aurora A) [nM]	Kinase activity, % of activity in the absence of inhibitor (CAMKK) [%]	Kinase activity, % of activity in the absence of inhibitor (ROCK 2) [%]	Kinase activity, % of activity in the absence of inhibitor (AMPK) [%]	activity at 100 µM (DYRK2) [%]	activity at 100 µM (HIPK2) [%]	activity at 100 µM (CLK2) [%]	IC50 (Aurora A (active); 5 μM ATP, 1 mM DTT, read-out: IC50, Aurora A kinase activity in the presence of DTT) [µM]	IC50 (Aurora A (active); 5 μM ATP, absence of DTT, read-out: IC50, Aurora A kinase activity) [µM]	TPX2-induced kinase activation after pre-incubation of Aurora A with CoA (Aurora A (active); 100 μM CoA pre-incubation, DTT-sensitive)	Inhibitory effect on Aurora A in the presence of TPX2 1–43 fragment (Aurora A (active); presence of TPX2 (residues 1–43), serial dilutions of CoA)
Nc1ncnc2c1ncn2C1OC(COP(=O)(O)OP(=O)(O)O)C(O)C1O (centres unmarked) [ADP]	54	1.3	170	~177000	52.9	57.8	54.1	42.4	16.5	33.9				
CC(C)(COP(=O)(O)OP(=O)(O)OC[C@H]1O[C@@H](n2cnc3c(N)ncnc32)[C@H](O)[C@@H]1OP(=O)(O)O)[C@@H](O)C(=O)NCCC(=O)NCCS [CoA, Coenzyme A]	5	0.28	0.01		97.4	94.3	90.8	102	153	109	47	~5	attenuated	completely abrogated the inhibitory effect
CC(C)(COP(=O)(O)OP(=O)(O)OCC1OC(n2cnc3c(N)ncnc32)C(O)C1O)C(O)C(=O)NCCC(=O)NCCS (centres unmarked) [dpCoA, dephospho-CoA]	17	> 100	0.3		71.4	96.4	75.9	77	73.4	80.1				

Source: article PMC6812009, “Covalent Aurora A regulation by the metabolic integrator coenzyme A” (Redox Biology, 2019)
